From BindingDB's records for doi:10.7270/Q23T9FMP (The Scripps Research Institute Molecular Screening Center, 2007)

Molecular target: Steroidogenic factor 1 (Homo sapiens, UniProt Q13285)
Experiment: SF-1 activators, concentration-response, dose response, cell-based, CHO-K1, Gal4-SF-1 LBD, luciferase luminescence (AID 692)
Conditions: not given

Sequence of Steroidogenic factor 1 (Q13285 whole entry, the tested form may be a part): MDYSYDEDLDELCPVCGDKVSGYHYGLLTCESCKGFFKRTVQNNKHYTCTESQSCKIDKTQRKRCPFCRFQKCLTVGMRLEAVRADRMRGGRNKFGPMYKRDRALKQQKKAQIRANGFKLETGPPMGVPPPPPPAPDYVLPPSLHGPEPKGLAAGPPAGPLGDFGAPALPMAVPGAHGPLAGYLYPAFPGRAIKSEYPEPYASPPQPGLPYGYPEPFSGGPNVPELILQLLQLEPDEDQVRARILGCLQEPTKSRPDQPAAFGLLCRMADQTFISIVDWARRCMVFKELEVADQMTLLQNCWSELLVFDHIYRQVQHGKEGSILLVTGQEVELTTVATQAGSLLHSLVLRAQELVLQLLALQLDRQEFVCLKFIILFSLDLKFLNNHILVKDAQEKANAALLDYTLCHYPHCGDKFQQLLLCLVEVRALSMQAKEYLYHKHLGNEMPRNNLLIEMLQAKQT

SMILES	EC50
O=C(CSc1ccccn1)c1ccc2c(c1)OCO2 [1-(1,3-benzodioxol-5-yl)-2-(2-pyridinylthio)ethanone]	1160 nM
O=C(COc1ncnc2ccccc12)c1ccc2c(c1)OCCO2 [1-(2,3-dihydro-1,4-benzodioxin-6-yl)-2-(4-quinazolinyloxy)ethanone]	396 nM
Clc1ccc(-n2ncc3c(NCc4ccccn4)ncnc32)cc1 [1-(4-chlorophenyl)-N-(2-pyridinylmethyl)-4-pyrazolo[3,4-d]pyrimidinamine]	2800 nM
COc1ccc2nc(Nc3nc(C)c(C(C)=O)s3)sc2c1 [1-[2-[(6-methoxy-1,3-benzothiazol-2-yl)amino]-4-methyl-1,3-thiazol-5-yl]ethanone]	572 nM
CCOC(=O)C1CCN(S(=O)(=O)c2ccc(-c3nc4ccccc4s3)s2)CC1 [1-[[5-(1,3-benzothiazol-2-yl)-2-thienyl]sulfonyl]isonipecotic acid ethyl ester]	2170 nM
COc1ccc(CNC(=O)NC2CCCCC2)cc1 [1-cyclohexyl-3-[(4-methoxyphenyl)methyl]urea]	> 11000 nM
COc1ccc(-c2cc(C(=O)N3CCCCC3)no2)cc1OC [1-{[5-(3,4-dimethoxyphenyl)isoxazol-3-yl]carbonyl}piperidine]	3840 nM
COc1cc(N2CCCC2)c(OC)cc1C=c1sc2nc3ccccc3n2c1=O [2-(2,5-dimethoxy-4-pyrrolidino-benzylidene)thiazolo[3,2-a]benzimidazol-1-one]	14600 nM
CCn1c(SCC(=O)c2cccs2)nnc1-c1ccco1 [2-(4-Ethyl-5-furan-2-yl-4H-[1,2,4]triazol-3-ylsulfanyl)-1-thiophen-2-yl-ethanone]	9840 nM
CCOc1ccc(N2C(=O)c3ccccc3C2O)cc1 (stereo not given) [2-(4-ethoxyphenyl)-3-hydroxy-3H-isoindol-1-one]	1250 nM
C=CCn1c(C)cc(C(=O)CSc2nc(O)c3ccccc3n2)c1C [2-[2-(2,5-dimethyl-1-prop-2-enyl-pyrrol-3-yl)-2-oxidanylidene-ethyl]sulfanyl-1H-quinazolin-4-one]	410 nM
Cc1csc2nc(CSc3nc4ccccc4o3)cn12 [2-[(3-methyl-6-imidazo[2,1-b]thiazolyl)methylthio]-1,3-benzoxazole]	> 3670 nM
CCOC(=O)CSc1nc(-c2ccc3c(c2)OCO3)ccc1C#N [2-[[6-(1,3-benzodioxol-5-yl)-3-cyano-2-pyridinyl]thio]acetic acid ethyl ester]	> 3670 nM
Cc1nc2sc(-c3ccccc3)cc2c(=O)n1-n1cccc1 [2-methyl-6-phenyl-3-(1-pyrrolyl)-4-thieno[2,3-d]pyrimidinone]	477 nM
Cc1ccc(C(=O)Nc2nnc(-c3cccs3)s2)cc1C [3,4-dimethyl-N-(5-thiophen-2-yl-1,3,4-thiadiazol-2-yl)benzamide]	989 nM
Cc1ccc(-n2c(C)cc(C(=O)COC(=O)c3c(C)noc3C)c2C)cc1 [3,5-dimethyl-4-isoxazolecarboxylic acid [2-[2,5-dimethyl-1-(4-methylphenyl)-3-pyrrolyl]-2-oxoethyl] ester]	1800 nM
COc1cc(C2c3c(c(O)n(-c4ccccc4)c3O)ON2c2ccccc2)ccc1O (stereo not given) [3-(3-methoxy-4-oxidanyl-phenyl)-2,5-diphenyl-3a,6a-dihydro-3H-pyrrolo[3,4-d][1,2]oxazole-4,6-dione]	31900 nM
O=c1c2ccccc2nnn1CSc1nnc(COc2ccc(Cl)cc2)n1Cc1ccco1 [3-[[5-[(4-chloranylphenoxy)methyl]-4-(furan-2-ylmethyl)-1,2,4-triazol-3-yl]sulfanylmethyl]-1,2,3-benzotriazin-4-one]	> 3670 nM
COc1ccc(-c2nc3c(Br)c(N)c(Br)cc3o2)cc1 [4,6-bis(bromanyl)-2-(4-methoxyphenyl)-1,3-benzoxazol-5-amine]	825 nM
COc1ccc(CNc2ccc(C(=O)O)cc2)cc1 [4-(p-anisylamino)benzoic acid]	1840 nM
CCCOC(=O)c1ccc(NC(=O)C2CCCO2)cc1 (stereo not given) [4-(tetrahydrofuran-2-carbonylamino)benzoic acid propyl ester]	2490 nM
COc1cccc2c(O)c(C(=O)NCc3cccs3)cnc12 [4-Hydroxy-8-methoxy-quinoline-3-carboxylic acid (thiophen-2-ylmethyl)-amide]	6650 nM
Cc1ccc(C(=O)Nc2ncc(Cc3ccc(F)cc3)s2)o1 [5-Methyl-furan-2-carboxylic acid [5-(4-fluoro-benzyl)-thiazol-2-yl]-amide]	414 nM

Continued, values first:

EC50	SMILES
401 nM	COc1ccc(C(=O)CC=Nc2cccc(C)n2)cc1OC
466 nM	CC(=O)c1c(C)[nH]c(C(=O)Nc2ccc3c(c2)OCCO3)c1C
827 nM	COc1ccc2c(c1OC)C(=O)N1c3ccccc3SC21 (stereo not given) [1,2-dimethoxy-4bH-isoindolo[1,2-b][1,3]benzothiazol-11-one]
585 nM	CCCn1c(C)cc(C(=O)COc2ncnc3sccc23)c1C [1-(2,5-dimethyl-1-propyl-3-pyrrolyl)-2-(4-thieno[2,3-d]pyrimidinyloxy)ethanone]
2430 nM	N#CCc1ccc(NC(=O)Nc2cccc(Cl)c2)cc1 [1-(3-chlorophenyl)-3-[4-(cyanomethyl)phenyl]urea]
386 nM	CN(C)c1ccc(NC(=O)Nc2cccc(Cl)c2)cc1 [1-(3-chlorophenyl)-3-[4-(dimethylamino)phenyl]urea]
1320 nM	COc1ccc2c(c1)CCc1c(C(=O)N3CCCCCC3)noc1-2 [1-azepanyl-(7-methoxy-4,5-dihydrobenzo[g][1,2]benzoxazol-3-yl)methanone]
1240 nM	Cc1cc(C(=O)OCC(=O)N2CCc3ccccc32)c(C)o1 [2,5-dimethyl-3-furancarboxylic acid [2-(2,3-dihydroindol-1-yl)-2-oxoethyl] ester]
138 nM	CC(C)(C)n1ncc2c(=O)n(CC(=O)NCc3ccccc3Cl)cnc21 [2-(1-tert-butyl-4-keto-pyrazolo[3,4-d]pyrimidin-5-yl)-N-(2-chlorobenzyl)acetamide]
5210 nM	CN(C)c1oc(-c2ccc(OCc3ccccc3)cc2)nc1C#N [2-(4-benzoxyphenyl)-5-(dimethylamino)oxazole-4-carbonitrile]
> 99000 nM	O=C(CSc1nc2ccccc2o1)Nc1nc2ccccc2s1 [2-(Benzooxazol-2-ylsulfanyl)-N-benzothiazol-2-yl-acetamide]
434 nM	OCCOCCNc1ncnc2c1cnn2-c1ccc(Cl)cc1 [2-[2-[[1-(4-chlorophenyl)-4-pyrazolo[3,4-d]pyrimidinyl]amino]ethoxy]ethanol]
1360 nM	CCOC(=O)CSc1nc2ccccc2c(=O)n1NC(=O)c1ccccc1 [2-[(3-benzamido-4-keto-quinazolin-2-yl)thio]acetic acid ethyl ester]
1210 nM	CCc1nnc(NC(=O)CSc2nc3c(cc2C#N)CCC3)s1 [2-[(3-cyano-1-pyrindan-2-yl)thio]-N-(5-ethyl-1,3,4-thiadiazol-2-yl)acetamide]
1620 nM	CCOC(=O)CSc1nc(-c2ccncc2)ccc1C#N [2-[(3-cyano-6-pyridin-4-yl-2-pyridinyl)thio]acetic acid ethyl ester]
> 11000 nM	Nn1c(SCC(=O)Nc2ccc(F)cc2F)nnc1-c1cccnc1 [2-[(4-amino-5-pyridin-3-yl-1,2,4-triazol-3-yl)sulfanyl]-N-(2,4-difluorophenyl)acetamide]
1690 nM	CCc1nnc(NC(=O)CSc2nc(C)c3c(c2C#N)CCCC3)s1 [2-[(4-cyano-1-methyl-5,6,7,8-tetrahydroisoquinolin-3-yl)sulfanyl]-N-(5-ethyl-1,3,4-thiadiazol-2-yl)acetamide]
3760 nM	O=C1CCCC(=O)C1=CNc1ccc(O)cc1 [2-[(4-hydroxyanilino)methylidene]cyclohexane-1,3-dione]
403 nM	COc1ccc2nc3sc(C(=O)NCc4cccs4)c(N)c3cc2c1 [3-Amino-6-methoxy-thieno[2,3-b]quinoline-2-carboxylic acid (thiophen-2-ylmethyl)-amide]
> 1220 nM	COc1cccc(C(=O)Nc2cccc(-c3nnc(-c4ccccc4)o3)c2)c1 [3-methoxy-N-[3-(5-phenyl-1,3,4-oxadiazol-2-yl)phenyl]benzamide]
> 11000 nM	c1ccc2nc3c(nc2c1)c1ccccc1n3CCN1CCOCC1 [4-(2-indolo[3,2-b]quinoxalin-6-ylethyl)morpholine]
2270 nM	Cc1cccnc1Nc1nc(-c2ccc(O)cc2O)cs1 [4-[2-(3-Methyl-pyridin-2-ylamino)-thiazol-4-yl]-benzene-1,3-diol]
> 11000 nM	CC(C)(CC(=O)O)Cc1nc(-c2ccc(Cl)cc2)no1 [4-[3-(4-chlorophenyl)-1,2,4-oxadiazol-5-yl]-3,3-dimethyl-butanoic acid]
> 1220 nM	CCOC(=O)N1CCN(S(=O)(=O)c2ccc(C(=O)Nc3sc4c(c3C#N)CCC4)cc2)CC1 [4-[4-[(3-cyano-5,6-dihydro-4H-cyclopenta[b]thiophen-2-yl)carbamoyl]phenyl]sulfonylpiperazine-1-carboxylic acid ethyl ester]
2710 nM	COC(=O)c1ccc(C(=O)C(C#N)c2nc3ccccc3s2)cc1 (stereo not given) [4-[(2Z)-2-(3H-1,3-benzothiazol-2-ylidene)-2-cyano-1-oxoethyl]benzoic acid methyl ester]
168 nM	Cc1ccc(C(=O)Nc2ncc(Cc3ccccc3)s2)o1 [5-Methyl-furan-2-carboxylic acid (5-benzyl-thiazol-2-yl)-amide]
2670 nM	Nc1c(C(=O)NCc2ccco2)nnn1-c1ccccc1 [5-amino-N-(2-furanylmethyl)-1-phenyl-4-triazolecarboxamide]

Same assay, conditions: inactive by the depositor's call

SMILES	EC50
O=C(Cc1ccccc1)n1nc(-c2ccccc2)nc1NCc1ccco1 [1-[5-(2-furanylmethylamino)-3-phenyl-1,2,4-triazol-1-yl]-2-phenylethanone]	11300 nM
Fc1cnc(N2CCOCC2)nc1N1CCc2ccccc21 [1-[5-fluoro-2-(4-morpholinyl)-4-pyrimidinyl]indoline]	13700 nM
O=C(CNc1ccccc1)Nc1ccc(F)cc1 [2-anilino-N-(4-fluorophenyl)acetamide]	11400 nM

The next lines start with the values.

EC50	SMILES
10900 nM	Cc1cccc(-n2ccnc2SCC(=O)Nc2nccs2)c1 [2-[1-(3-methylphenyl)imidazol-2-yl]sulfanyl-N-(1,3-thiazol-2-yl)acetamide]
11400 nM	O=C(Nc1nccs1)c1ccc(COc2ccc(F)cc2)o1 [5-[(4-fluoranylphenoxy)methyl]-N-(1,3-thiazol-2-yl)furan-2-carboxamide]
